From patent US20170072033A1, “LIPOSOMAL COMPOSITIONS FOR MUCOSAL DELIVERY” (GlaxoSmithKline Biologicals, SA, priority 2014, published 2017)

Experiment: Rabbit pyrogen test
Conditions: ng CRX-601/kg animal body weight
Protocol: The test was performed at Pacific Biolabs (Hercules, Calif.) as per their SOP 16E-02, which follows procedures outlined in USP<151>.

Compound `CCCCCCCCCCC[C@H](CC(=O)N[C@H]1[C@H](OC[C@H](NC(=O)C[C@@H](CCCCCCCCCCC)OCCCCCCCCCC)C(=O)O)O[C@H](CO)[C@@H](OP(=O)(O)O)[C@@H]1OC(=O)C[C@@H](CCCCCCCCCCC)OCCCCCCCCCC)OCCCCCCCCCC` [CRX-601] has a max non-pyrogenic dose of 0.0025 µg/kg.
